In patent EP4785945A1, “THERAPEUTIC AGENT FOR RHEUMATOID ARTHRITIS” (Teijin Pharma Limited, priority 2023, dated 2025):

Assays:
[1] = test system: mouse anti-collagen antibody-induced arthritis (CAIA) model; test: Combination study with etanercept, Arthritis Score; type: in vivo; conditions: Compound 1 alone, 50 mg/kg/day
Description: The effect of combining Compound 1 with etanercept was measured using a mouse anti-collagen antibody-induced arthritis (CAIA) model. The effect was evaluated using the Arthritis Score. […] Compared to the control, the scores decreased by 64% when only Compound 1 was used, by 62% when only etanercept was used, and by 97% when Compound 1 and etanercept were used in combination.

[2] = Clinical trial on rheumatoid arthritis patients: pharmacokinetics (plasma concentration); type: in vivo, humans; conditions: human, Day 7 after administration
Description: (§1) Compound 1 was orally administered at dosages of 10, 25, 75, or 175 mg once daily for seven days (double-blind study) to 32 rheumatoid arthritis patients (six patients for each dosage of Compound 1 administration, and two patients for each dosage of placebo administration).
(§2) Endpoints included: items related to disease activity and pain (DAS28-CRP, ACR20, VAS scale pain score, and TJC) to represent efficacy; vital signs (blood pressure, pulse, body temperature, and respiratory rate), physical findings, electrocardiograms, hematological tests, blood biochemistry tests, and the severity and frequency of adverse events to represent safety; and changes in the plasma concentration of Compound 1 to represent pharmacokinetics (PK).

[3] = test system: rheumatoid arthritis patients; test: Clinical trial on rheumatoid arthritis patients: safety; type: in vivo, humans
Description: as §1, §2

synovial cells = test: Proliferation of synovial cells stimulated with TNF-α and IL-1β; type: cell-based; conditions: Synovial cell, relative to baseline after TNF-α and IL-1β stimulation without Compound 1, read-out: suppression of proliferation of synovial cells
Description: (§3) The synovial cells used in the test were derived from rheumatoid arthritis patients. The synovial cells were stimulated with tumor necrosis factor-α (TNF-α) and interleukin-1β (IL-1β) at the time of the test, and the effect of Compound 1 was measured. […] Furthermore, with regard to matrix metalloproteinase-3 (MMP-3), which is a mediator involved in tissue destruction, relative to a baseline after TNF-α and IL-1β stimulation without any added Compound 1, Compound 1 suppressed secretion in a dosage-dependent manner, by 14% when 10 nM was added, 21% when 30 nM was added, 37% when 100 nM was added, 60% when 300 nM was added, and 63% when 1000 nM was added.

[4] = test system: rheumatoid arthritis patients; test: Clinical trial on rheumatoid arthritis patients: efficacy (ACR20, DAS28-CRP, VAS scale pain score, TJC); type: in vivo, humans
Description: as §1, §2
DAS28-CRP was used to determine whether there was improvement or no improvement based on the differences between the values on Day 1 and Day 7 of administration, in accordance with the criteria shown in Table 1 (EULAR criteria).
ACR20 was used to determine whether there was an improvement based on the ACR20 on Day 1 and Day 7 of administration.
The percentage change in the VAS scale pain score is the percentage change in the score on Day 7 compared to the score on Day 1.
The percentage change in the TJC score is the percentage change in the value on Day 7 compared to the value on Day 1.

[5] = test system: synovial cells and bone marrow cells; type: in vitro ADME
Description: Cultured synovial cells and bone marrow cells were used. Compound 1 was added, and the intracellular concentration in the synovial cells and bone marrow cells and the concentration in the culture medium were measured.

rat AIA model = test: Combination study with tofacitinib, Arthritis Score; type: in vivo; conditions: 30 mg/kg/day
Description: The effect of combining compound 1 with tofacitinib was measured using a rat AIA model. The effect was evaluated using the Arthritis Score.

[6] = test system: rat adjuvant-induced arthritis (AIA) model; test: Combination study with methotrexate, Arthritis Score; type: in vivo
Description: The effect of combining Compound 1 with methotrexate was measured using a rat adjuvant-induced arthritis (AIA) model. The effect was evaluated using the Arthritis Score. […] Compared to the control, the scores decreased by 33% when only Compound 1 was used, by 59% when only methotrexate was used, and by 86% when Compound 1 and methotrexate were used in combination. On the other hand, in this study, there was no decrease in the number of bone marrow cells even when Compound 1 and methotrexate were used in combination.

[7] = test system: matrix metalloproteinase-3 (MMP-3); test: MMP-3 secretion by synovial cells stimulated with TNF-α and IL-1β; type: cell-based; conditions: Synovial cell, relative to baseline after TNF-α and IL-1β stimulation without Compound 1, read-out: suppression of MMP-3 secretion
Description: as §3

[8] = test system: granulocyte macrophage colony-stimulating factor (GM-CSF); test: GM-CSF secretion by synovial cells stimulated with TNF-α and IL-1β; type: cell-based; conditions: relative to baseline after TNF-α and IL-1β stimulation without Compound 1, read-out: suppression of GM-CSF secretion
Description: as §3

[9] = package insert; cited from earlier work
[10] = Day 1 to Day 7 of administration and three-day follow-up (up to Day 10)
[11] = all administration groups (10 to 175 mg)
[12] = 25 mg, 75 mg, and 175 mg administration groups, Day 7 compared to Day 1
[13] = 75 mg administration group, Day 7 compared to Day 1

For CC(C)Nc1nc([C@@H](C)O)cc2cnc(Nc3ccc(N4CCNCC4=O)cn3)nc12 [Compound 1, (R)-1-(6-((6-(1-hydroxyethyl)-8-(isopropylamino)pyrido[3,4-d]pyrimidin-2-yl)amino)pyridin-3-yl)piperazin-2-one], the “decrease of Arthritis Score compared to the control” value (from here on “decrease of Arthritis Score”) [1] was 64%, the half-life at 168 h ([2]; 10 mg once daily oral) was 12.9 h and the half-life at 168 h ([2]; 25 mg once daily oral) was 11.9 h. The half-life at 168 h ([2]; 75 mg once daily oral) was 14.6 h, the half-life at 168 h ([2]; 175 mg once daily oral) was 10.4 h and the “adverse events, cases (events)” value ([3]; 10 mg administration group) was “two cases (five events)”. The “adverse events, cases (events)” value ([3]; 25 mg administration group) was “two cases (three events)”, the “adverse events, cases (events)” value ([3]; 75 mg administration group) was “two cases (three events)” and the “adverse events, cases (events)” value ([3]; 175 mg administration group) was “one case (one event)”. For the same molecule, the “neutropenia or decrease in neutrophil count” value [3, 10] was “no neutropenia or decrease in neutrophil count”, the neutrophil count [3, 10] was “maintained a constant neutrophil count” and the severe adverse events [3, 11] was “no severe adverse events”. The “severity of adverse events” value [3, 11] was “mild to moderate”, the “changes in vital signs, electrocardiograms, physical findings, hematological tests, or blood biochemistry tests” value ([3]; any dosage (10, 25, 75, 175 mg once daily, seven days)) was “No significant changes” and the inhibition at 0.01 µM (synovial cells; 10 nM) was 5%. For the same molecule, the inhibition at 0.03 µM (synovial cells; 30 nM) was 14%, the inhibition at 0.1 µM (synovial cells; 100 nM) was 19% and the inhibition at 0.3 µM (synovial cells; 300 nM) was 27%. For the same molecule, the inhibition at 1 µM (synovial cells; 1000 nM) was 35%, the “percentages of subjects who showed improvement in ACR20, compared with placebo group” value ([4]; 25 mg, 75 mg, and 175 mg administration groups, once daily oral, seven days) was “higher than in the placebo group” and the “percentages of subjects who showed improvement in DAS28-CRP, compared with placebo group” value ([4]; 25 mg, 75 mg, and 175 mg administration groups, once daily oral, seven days, EULAR criteria) was “higher than in the placebo group”. The “decreases in the TJC scores, compared with placebo group” value [4, 12] was “higher than in the placebo group”, the “decreases in the VAS scale pain scores, compared with placebo group” value [4, 12] was “higher than in the placebo group” and the “percentage of subjects who showed improvement in ACR20” value ([4]; 75 mg administration group, once daily oral, seven days) was 60%. The “percentage of subjects who showed improvement in DAS28-CRP” value ([4]; 75 mg administration group, once daily oral, seven days, EULAR criteria) was 80%, the “percentage change in the TJC score” value [4, 13] was -40% and the “percentage change in the VAS scale pain score” value [4, 13] was -40%. For the same molecule, the “distribution ratio between synovial cells and bone marrow cells” value [5] was 84:16, the “decrease of Arthritis Score” value (rat AIA model; Compound 1 alone) was 40% and the “decrease of Arthritis Score” value ([6]; Compound 1 alone, 30 mg/kg/day) was 33%. For the same molecule, the inhibition at 0.01 µM ([7]; 10 nM) was 14%, the inhibition at 0.03 µM ([7]; 30 nM) was 21% and the inhibition at 0.1 µM ([7]; 100 nM) was 37%. The inhibition at 0.3 µM ([7]; 300 nM) was 60%, the inhibition at 1 µM ([7]; 1000 nM) was 63% and the inhibition at 0.008 µM ([8]; 8 nM) was 17%. The inhibition at 0.04 µM ([8]; 40 nM) was 25%, the inhibition at 0.2 µM ([8]; 200 nM) was 48% and the inhibition at 1 µM ([8]; 1000 nM) was 65%.
For CCN1CCN(Cc2ccc(Nc3ncc(F)c(-c4cc(F)c5nc(C)n(C(C)C)c5c4)n3)nc2)CC1 [abemaciclib], the “incidence of the side effect of neutropenia” value [9] is listed as 42.2%.
For CN(Cc1cnc2nc(N)nc(N)c2n1)c1ccc(C(=O)N[C@@H](CCC(=O)O)C(=O)O)cc1 [methotrexate, reference compound], the “decrease of Arthritis Score” value ([6]; methotrexate alone, 0.075 mg/kg/day) was 59%.
In the case of C[C@@H]1CCN(C(=O)CC#N)C[C@@H]1N(C)c1ncnc2[nH]ccc12 [tofacitinib, reference compound], the “decrease of Arthritis Score” value (rat AIA model; tofacitinib alone) is reported as 67%.
